This note sets out measurements from publication PMC2974656, “Selective killing of human immunodeficiency virus infected cells by non-nucleoside reverse transcriptase inhibitor-induced activation of HIV protease” (Retrovirology, 2010).

Series [1] deals with T1, RT heterodimer (p66/p51) (Human immunodeficiency virus type 1 group M subtype B, UniProt P04585).
T1 construct: the bait protein (p66) was fused to the C-terminus of a chimeric receptor; expressed in transfected cells; host or cells: mammalian cells
The experiment in a line: cell-based. The format is cell-based, HIV-1. The source says: RT heterodimer formation was monitored using a mammalian two hybrid system described previously. In brief, the bait protein (p66) was fused to the C-terminus of a chimeric receptor consisting of the extracellular part of the erythropoietin receptor and the intracellular part of the leptin receptor incapable of STAT activation. The prey protein (p51) was coupled to a part of the cytoplasmic tail of the gp130 chain carrying several STAT3 recruitment domains. Interaction of bait and prey protein leads to functional complementation of STAT3 activity, which results in Epo dependent induction of a STAT3-responsive luciferase reporter gene. Enhancement of this interaction by the addition of compounds can thus be measured by an increase of luciferase expression.

In series [2] the test system is 293T cells. The series is described as follows: Microscopically detectable impairment of cell growth of transfected 293T cells. The format is cell-based. The following applies: high NNRTI concentrations (5 μM and above). Here is the method: At 44 h post transfection, cell lysates were analyzed for β-Gal activity.
Series [3] relates to HIV-1IIIB. The experiment in a line: Direct antiviral activity: MT4-LTR-EGFP cells infected with HIV-1IIIB, EGFP fluorescence. The format is cell-based. The following applies: MT4-LTR-EGFP cells, HIV-1IIIB MOI 0.01, 3 days; mean ± SD of three or more measurements; read-out: Inhibition of HIV replication in vitro EC50. The protocol: After 3 days of incubation, infected cells were quantified by determination of total EGFP fluorescence per well based on microscopy and subsequent image analysis. Threshold values were determined from the average pixel value plus 6 standard deviations from the uninfected control wells, and the median threshold from all control wells on a plate was defined as baseline GFP expression. Intensity values for the sample wells were then determined by subtracting the background threshold from each pixel value obtained from the image of the respective well and calculating the sum of net pixel intensities. Percent inhibition was calculated as 100 * (1 - (Sample - CC)/(VC - CC)).

For `NS(=O)(=O)c1ccc(NC(=O)CSc2nnc(Br)n2-c2ccc(C3CC3)c3ccccc23)c(Cl)c1` [VRX-480773], the EC50 came to 4 nM in series [1] (concentration enhancing luciferase signal by 50% over control, read-out: Enhancement of RT-Dimerization EC50) and 1.6 ± 0.81 nM in series [3]. Moreover, the “Promotion of RT dimerization, in words” value in series [1] (summary of Table 1) is reported as “low nM range”. Moreover, in series [2], the “Impairment of cell growth with decrease in β-Gal activity indicative of cytotoxic effects” value is “most pronounced”.
